# Measured values: patent publication US20220218707A1, “USE OF COMPOSITION OF IMATINIB OR DERIVATIVE THEREOF IN PREPARATION OF DRUG FOR PREVENTING, TREATING, AND CONTROLLING ADDICTION RELAPSE” (Wuhan University, priority 2019, published 2022)
# Structures can show the parent of a compound that is named as a salt. Where two headings read alike, the source gives them in different places.
# What was measured:
# c-Kit [1] = target: T1, c-Kit (Rattus norvegicus, UniProt F7EWK5); details: acute ethanol administration
# SD rats [2] = details: imatinib mesylate 1, 5, 10, 20, or 30 mg/kg i.p.
# SD rats [3] = test system: SD rats
# SD rats [4] = details: for morphine tolerance and heat pain threshold in CFA rats: day 6 after model establishment
# [5] = Naloxone-precipitated withdrawal symptoms after morphine-induced CPP (jump times, body weight); details: imatinib mesylate 15, 30, and 45 mg/kg with morphine 5 mg/kg, naloxone 2 mg/kg s.c.; combination or compound preparation
# SD rats [6] = details: direct administration; any dose of imatinib mesylate
# SD rats [7] = test: Ethanol sensitization model; assay type: in vivo; details: imatinib mesylate 15, 20, or 30 mg/kg
# SD rats [8] = test: Morphine sensitization model (spontaneous activity); assay type: in vivo
# SD rats [9] = test system: SD rats; remark: listed apart in the source
# SD rats [10] = test system: SD rats; remark: listed apart in the source
# SD rats [11] = details: imatinib mesylate 1, 5, 10, 20, and 30 mg/kg i.p.
# SD rats [12] = test system: SD rats; remark: listed apart in the source
# SD rats [13] = test: Development of high-sugar and high-fat food-induced CPP; assay type: in vivo
# SD rats [14] = test: Nicotine withdrawal symptoms (spontaneous activity); assay type: in vivo
# Description: Test instrument: Conditional place preference (CPP) test apparatus (the same as that in Example 19); and spontaneous activity detecting apparatus (developed by the Institute of Chinese Materia Medica, China Academy of Chinese Medical Sciences). The test was automatically controlled by a computer. The apparatus includes four spontaneous activity observation chamber, a video synthesizer, a video pattern sampling card, and analysis software. The system performs video tracking of the rat activity and automatically records the rat activity track and activity times. The spontaneous activity evaluation index is the total activity times in a certain period of time (such as 60 min), and an increase in the total activity times indicates an increase in spontaneous activity. […] In addition, a physiological saline+physiological saline group without nicotine treatment was used as the control group. […] After 60 min, a spontaneous activity detecting apparatus was used to detect the spontaneous activities.
# SD rats [15] = test system: SD rats; remark: listed apart in the source
# Description: Groups: A total of 14 groups (n=10) were included.
# The rest process was the same as that in Example 3.
# SD rats [16] = test system: SD rats; remark: listed apart in the source
# SD rats [17] = details: for drug-seeking behavior and relapse after cocaine addiction: imatinib mesylate 20 and 30 mg/kg
# c-Kit [18] = target: T1, c-Kit; details: acute morphine 10 mg/kg s.c.; not in other brain regions
# c-Kit [19] = target: T1, c-Kit; details: acute nicotine 0.5 mg/kg s.c.; not in other brain regions
# [20] = imatinib mesylate 1, 5, and 10 mg/kg, ethanol 0.75 g/kg for training CPP
# [21] = imatinib mesylate 1 and 5 mg/kg, ethanol 0.5 g/kg for training CPP
# [22] = imatinib mesylate 10, 15, 20, and 30 mg/kg, ethanol 0.5 g/kg for training CPP
# [23] = imatinib mesylate 15, 20, and 30 mg/kg, ethanol 0.75 g/kg for training CPP
# T1 sequence (F7EWK5 26-978): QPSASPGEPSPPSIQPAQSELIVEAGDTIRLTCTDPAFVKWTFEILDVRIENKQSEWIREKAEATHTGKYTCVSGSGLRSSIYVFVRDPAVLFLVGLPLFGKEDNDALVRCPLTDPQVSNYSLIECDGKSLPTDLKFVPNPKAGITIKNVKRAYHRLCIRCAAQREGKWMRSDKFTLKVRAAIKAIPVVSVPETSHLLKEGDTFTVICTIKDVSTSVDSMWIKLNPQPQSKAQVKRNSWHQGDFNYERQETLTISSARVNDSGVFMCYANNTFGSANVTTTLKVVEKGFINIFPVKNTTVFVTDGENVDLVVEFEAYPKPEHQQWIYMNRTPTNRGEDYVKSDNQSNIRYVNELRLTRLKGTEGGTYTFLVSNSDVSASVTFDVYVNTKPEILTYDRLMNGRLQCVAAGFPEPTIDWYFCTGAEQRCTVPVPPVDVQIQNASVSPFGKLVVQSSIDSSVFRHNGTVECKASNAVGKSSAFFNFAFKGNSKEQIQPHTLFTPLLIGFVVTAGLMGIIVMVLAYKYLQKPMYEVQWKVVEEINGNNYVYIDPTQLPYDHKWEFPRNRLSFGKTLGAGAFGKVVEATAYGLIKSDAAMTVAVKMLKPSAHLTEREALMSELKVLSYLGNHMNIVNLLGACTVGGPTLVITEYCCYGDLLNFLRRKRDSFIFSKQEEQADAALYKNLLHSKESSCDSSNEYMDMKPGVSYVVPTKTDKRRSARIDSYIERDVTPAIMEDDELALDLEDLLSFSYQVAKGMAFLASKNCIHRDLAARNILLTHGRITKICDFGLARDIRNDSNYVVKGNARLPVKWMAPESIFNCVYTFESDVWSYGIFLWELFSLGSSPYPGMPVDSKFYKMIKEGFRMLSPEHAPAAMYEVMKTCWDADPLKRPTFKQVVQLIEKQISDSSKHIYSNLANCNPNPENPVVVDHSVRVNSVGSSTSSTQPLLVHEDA
smiles,measurement,setting,value
CCO [ethanol],activation of c-kit receptor in neurons in nucleus accumbens,c-Kit [1],specifically activated
Cc1ccc(NC(=O)c2ccc(CN3CCN(C)CC3)cc2)cc1Nc1nccc(-c2cccnc2)n1 [imatinib mesylate],"hind paw licking time, imatinib mesylate+physiological saline compared with physiological saline+physiological saline",SD rats [2],no obvious changes
same,"hind paw licking time, imatinib mesylate+morphine compared with morphine+physiological saline",SD rats [2]; morphine 10 mg/kg s.c.,no obvious changes
same,morphine tolerance (heat pain threshold),"SD rats [3]; 1, 5, and 10 mg/kg i.p., morphine 10 mg/kg s.c.",do not have this inhibitory effect
same,morphine tolerance (heat pain threshold),"SD rats [3]; 20 and 30 mg/kg i.p., morphine 10 mg/kg s.c.",can prevent the development of CPP
same,morphine tolerance (heat pain threshold),"SD rats [3]; 20 and 30 mg/kg i.p., morphine 10 mg/kg s.c., listed as Imatinib sulfonate",can significantly reduce the expression of morphine-induced tolerance
same,minimum dose of imatinib mesylate preventing morphine tolerance,SD rats [3]; dose ratio to morphine 2:1 or greater,10 mg/kg
same,morphine tolerance (heat pain threshold),"SD rats [3]; imatinib mesylate 10, 20, and 30 mg/kg, tolerance induced by 5 mg/kg morphine",can prevent the development of morphine tolerance
same,treatment and prevention of morphine tolerance,"SD rats [3]; low dose of 5 mg/kg, rats",can be used in the treatment and prevention of morphine tolerance in rats
same,morphine tolerance and heat pain threshold in CFA rats,"SD rats [4]; imatinib mesylate 1, 5, and 10 mg/kg",have no this effect
same,morphine tolerance and heat pain threshold in CFA rats,SD rats [4]; imatinib mesylate 20 and 30 mg/kg,can significantly prevent the development of morphine tolerance
same,"heat pain threshold, imatinib mesylate+morphine compared with morphine+physiological saline","SD rats [4]; days 4 and 5 after model establishment, morphine 10 mg/kg s.c.",no obvious change
same,"morphine withdrawal symptoms (jump times, changes in body weight)",[5],can alleviate the withdrawal symptoms
same,gambling behavior (choice),SD rats [6],no significant effect
same,development of ethanol sensitization,SD rats [7]; ethanol 0.75 g/kg for 5 consecutive days,the development of ethanol sensitization in rats is inhibited
same,expression of ethanol sensitization,SD rats [7]; ethanol challenge on day 11,the expression of ethanol sensitization in rats is inhibited
same,expression of morphine sensitization,SD rats [8]; imatinib mesylate 30 mg/kg i.p. on day 11 before morphine 5 mg/kg challenge,the expression of morphine sensitization in rats is inhibited
same,development of morphine sensitization,SD rats [8]; imatinib mesylate 30 mg/kg with morphine 10 mg/kg for 5 consecutive days,the development of morphine sensitization in rats is inhibited
same,CPP (drug-seeking behavior) after morphine addiction,"SD rats [9]; imatinib mesylate 1, 5, and 10 mg/kg i.p., morphine 10 mg/kg for training CPP",no obvious effect
same,CPP (drug-seeking behavior) after morphine addiction,"SD rats [9]; imatinib mesylate 1 and 5 mg/kg i.p., morphine 5 mg/kg for training CPP",no obvious effect
same,CPP (drug-seeking behavior) after morphine addiction,"SD rats [9]; imatinib mesylate 10, 20, and 30 mg/kg i.p., morphine 5 mg/kg for training CPP",can significantly relieve CPP and prevent it from being primed
same,CPP (drug-seeking behavior) after morphine addiction,"SD rats [9]; imatinib mesylate 20 and 30 mg/kg i.p., morphine 10 mg/kg for training CPP",can significantly relieve CPP and prevent it from being primed
same,development of ethanol-induced CPP,SD rats [10]; [20],no significant effect on the development of CPP
same,development of ethanol-induced CPP,SD rats [10]; [21],no significant effect on the development of CPP
same,development of ethanol-induced CPP,SD rats [10]; [22],can significantly relieve CPP
same,development of ethanol-induced CPP,SD rats [10]; [23],can significantly relieve CPP
same,"HPT, imatinib mesylate+physiological saline compared with physiological saline+physiological saline",SD rats [11],no obvious change
same,"heat pain threshold, imatinib mesylate+morphine compared with morphine+physiological saline",SD rats [11]; morphine 10 mg/kg s.c.,no obvious change
same,priming with high-sugar and high-fat food after 1 week,"SD rats [12]; direct administration, all doses of imatinib mesylate",cannot prevent the rats from being primed
same,food-seeking behavior (CPP),"SD rats [12]; imatinib mesylate 10, 20, and 30 mg/kg, substance cue, environmental cue or direct administration",can inhibit the food-seeking behavior
same,development of addiction to high-sugar and high-fat food (CPP),"SD rats [13]; imatinib mesylate 1, 5, and 10 mg/kg i.p.",no significant effect on the development of addiction to high-sugar and high-fat food
same,development of addiction to high-sugar and high-fat food (CPP),SD rats [13]; imatinib mesylate 20 and 30 mg/kg i.p.,can significantly inhibit the development of addiction to high-sugar and high-fat food
same,nicotine withdrawal symptoms (spontaneous activities),"SD rats [14]; imatinib mesylate 10, 20, and 30 mg/kg, addiction trained by 0.25 mg/kg of nicotine",can differently alleviate the withdrawal symptoms
same,nicotine withdrawal symptoms (spontaneous activities),"SD rats [14]; imatinib mesylate 20 and 30 mg/kg, addiction trained by 0.5 mg/kg of nicotine",can alleviate the withdrawal symptoms
same,CPP (drug-seeking behavior) after ethanol addiction,SD rats [15]; [20],no obvious effect
same,CPP (drug-seeking behavior) after ethanol addiction,SD rats [15]; [21],no obvious effect
same,CPP (drug-seeking behavior) after ethanol addiction,SD rats [15]; [22],can significantly relieve CPP and prevent it from being primed
same,CPP (drug-seeking behavior) after ethanol addiction,SD rats [15]; [23],can significantly relieve CPP and prevent it from being primed
same,priming (relapse) after challenge with a small dose of ethanol,SD rats [16]; direct administration of imatinib mesylate,are all primed
same,"CPP after ethanol addiction, all treatment groups","SD rats [16]; imatinib mesylate 15 and 30 mg/kg, ethanol 0.75 g/kg for training CPP",can significantly reduce the CPP
same,drug-seeking behavior and relapse after ethanol addiction,"SD rats [16]; unconditioned stimulus ethanol 0.5 g/kg, imatinib mesylate 20 and 30 mg/kg","can only inhibit the drug-seeking behavior, and cannot prevent relapse"
same,priming (relapse) after cocaine addiction,SD rats [17]; direct administration of imatinib mesylate 20 and 30 mg/kg,the rats are still primed
same,drug-seeking behavior and relapse after cocaine addiction,SD rats [17]; unconditioned stimulus cocaine 3 mg/kg,can prevent the drug-seeking behavior and relapse
same,drug-seeking behavior and relapse after cocaine addiction,SD rats [17]; unconditioned stimulus cocaine 4 mg/kg,"can only inhibit the drug-seeking behavior, and cannot prevent relapse"
CNC1(C)C2CCC(C2)C1(C)C (centres unmarked) [mecamylamine],spontaneous activities of rats with nicotine addiction,"SD rats [14]; mecamylamine 0.5 mg/kg, withdrawal symptoms aroused",the spontaneous activities decreases significantly
CN1CC[C@]23c4c5ccc(O)c4O[C@H]2[C@@H](O)C=C[C@H]3[C@H]1C5 [morphine],activation of c-kit receptor and downstream signaling molecules in neurons in nucleus accumbens,c-Kit [18],specifically activated
CN1CCCC1c1cccnc1 (centres unmarked) [nicotine],activation of c-kit receptor and downstream signaling molecules in neurons in nucleus accumbens,c-Kit [19],specifically activated
